Data reported in PMC10454678, “Synthesis of hydroxy benzoin/benzil analogs and investigation of their antioxidant, antimicrobial, enzyme inhibition, and cytotoxic activities” (Turkish Journal of Chemistry, 2021).
Converted amounts (≈) assume the structure as drawn. “And” between values parts separate entries of the source, which are not always exact repeats. Equal values may be shown once. Read-outs that look alike come from different tables or passages of the source.

Key:
[1] = Copper ions reducing activity (CUPRAC); settings: Trolox equivalents; 30 min dark, room temperature, 450 nm
[2] = DPPH radical scavenging activity; settings: 0.1 mM DPPH, 50 min dark, 517 nm
acetylcholinesterase = acetylcholinesterase (Homo sapiens, UniProt P22303); assay: biochemical; settings: Tris-HCl pH 8.0, 25 °C, 405 nm; read-out: AChE IC50 (converted)
α-glucosidase = assay: α-Glucosidase inhibition; assay type: biochemical; settings: PNPG, pH 6.8, 37 °C, 400 nm
Protocol: It was incubated at 37 °C for 15 min. Similarly, an enzyme-free blank was prepared. The reaction was stopped when sodium carbonate (50 μL, 0.2 M) was added.

[3] = Ferric reducing antioxidant power (FRAP) assay; settings: Trolox equivalents; compounds 2 mg/mL, 30 °C 30 min, 595 nm
[4] = tested on: Paenibacillus larvae DSM7030; assay: MIC, microdilution, P. larvae; assay type: cell-based; settings: Gram (+) nonpathogenic spore forming
[5] = tested on: Bacillus subtilis ATCC1266; assay: MIC, microdilution, B. subtilis; assay type: cell-based; settings: Gram (+) nonpathogenic spore forming
butyrylcholinesterase = butyrylcholinesterase (Homo sapiens, UniProt P06276); assay: biochemical; settings: Tris-HCl pH 8.0, 25 °C, 405 nm; read-out: BChE IC50 (converted)
[6] = tested on: Escherichia coli ATCC 25922; assay: MIC, microdilution, E. coli; assay type: cell-based; settings: Escherichia coli
[7] = tested on: Pseudomonas aeruginosa ATCC27853; assay: MIC, microdilution, P. aeruginosa; assay type: cell-based; settings: Pseudomonas aeruginosa, ATCC27853; Gram (-); Mueller-Hinton broth, 18-24 h, 36 °C; read-out: MIC Pa
[8] = tested on: Mycobacterium smegmatis ATCC607; assay: MIC, microdilution, M. smegmatis; assay type: cell-based; settings: Mycolicibacterium smegmatis, ATCC607, 72 h, Tub., BHI broth, 36 °C, read-out: MIC Ms
Bacillus cereus Roma709 = assay: MIC, microdilution, B. cereus; assay type: cell-based; settings: Bacillus cereus
[9] = tested on: Yersinia pseudotuberculosis ATCC911; assay: microbe, parasite or virus in culture; assay type: cell-based; settings: Yersinia pseudotuberculosis, ATCC911, read-out: MIC Yp
[10] = tested on: Enterococcus faecalis ATCC29212; assay: MIC, microdilution, E. faecalis; assay type: cell-based; settings: Enterococcus faecalis, ATCC29212; Gram (+); Mueller-Hinton broth, 18-24 h, 36 °C; read-out: MIC Ef
[11] = tested on: Streptococcus mutans RSKK07038; assay: MIC, microdilution, S. mutans; assay type: cell-based; settings: Streptococcus mutans, RSKK07038; Gram (+); BHI broth, 72 h, 36 °C; read-out: MIC Sm
[12] = tested on: Staphylococcus aureus ATCC25923; assay: MIC, microdilution, S. aureus; assay type: cell-based; settings: Staphylococcus aureus
[13] = tested on: Candida albicans ATCC60193; assay: MIC, microdilution, C. albicans; assay type: cell-based; settings: Candida albicans, ATCC60193; fungus; YEPD broth, 48 h, 36 °C; read-out: MIC Ca
[14] = tested on: human retinal normal cell line (RPE); assay: MTT cell proliferation, RPE
[15] = tested on: human cervical cancer cell line (HeLa); assay: MTT cell proliferation, HeLa
[16] = ATCC25922, Gram (-), Mueller-Hinton broth, 18-24 h, 36 °C, read-out: MIC Ec
[17] = ROMA709, Gram (+), Mueller-Hinton broth, 18-24 h, 36 °C, read-out: MIC Bc
[18] = ATCC25923, Gram (+), Mueller-Hinton broth, 18-24 h, 36 °C, read-out: MIC Sa

Sequence of butyrylcholinesterase (P06276 29-602): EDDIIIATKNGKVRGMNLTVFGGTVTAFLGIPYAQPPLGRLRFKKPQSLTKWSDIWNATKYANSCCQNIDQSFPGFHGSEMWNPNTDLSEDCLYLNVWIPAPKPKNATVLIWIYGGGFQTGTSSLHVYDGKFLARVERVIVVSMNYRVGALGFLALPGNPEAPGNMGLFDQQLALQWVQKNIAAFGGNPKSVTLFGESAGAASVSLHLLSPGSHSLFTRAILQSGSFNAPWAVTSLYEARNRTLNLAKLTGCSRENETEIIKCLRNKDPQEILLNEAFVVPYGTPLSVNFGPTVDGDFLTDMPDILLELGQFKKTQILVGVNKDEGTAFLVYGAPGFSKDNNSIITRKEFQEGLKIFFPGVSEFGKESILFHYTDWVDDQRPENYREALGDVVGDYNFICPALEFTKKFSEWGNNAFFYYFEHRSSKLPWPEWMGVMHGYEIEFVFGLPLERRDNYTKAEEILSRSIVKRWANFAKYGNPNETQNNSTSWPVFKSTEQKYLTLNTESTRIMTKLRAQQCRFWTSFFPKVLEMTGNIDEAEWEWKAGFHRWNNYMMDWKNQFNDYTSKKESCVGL
Sequence of acetylcholinesterase (P22303 32-614, species assumed): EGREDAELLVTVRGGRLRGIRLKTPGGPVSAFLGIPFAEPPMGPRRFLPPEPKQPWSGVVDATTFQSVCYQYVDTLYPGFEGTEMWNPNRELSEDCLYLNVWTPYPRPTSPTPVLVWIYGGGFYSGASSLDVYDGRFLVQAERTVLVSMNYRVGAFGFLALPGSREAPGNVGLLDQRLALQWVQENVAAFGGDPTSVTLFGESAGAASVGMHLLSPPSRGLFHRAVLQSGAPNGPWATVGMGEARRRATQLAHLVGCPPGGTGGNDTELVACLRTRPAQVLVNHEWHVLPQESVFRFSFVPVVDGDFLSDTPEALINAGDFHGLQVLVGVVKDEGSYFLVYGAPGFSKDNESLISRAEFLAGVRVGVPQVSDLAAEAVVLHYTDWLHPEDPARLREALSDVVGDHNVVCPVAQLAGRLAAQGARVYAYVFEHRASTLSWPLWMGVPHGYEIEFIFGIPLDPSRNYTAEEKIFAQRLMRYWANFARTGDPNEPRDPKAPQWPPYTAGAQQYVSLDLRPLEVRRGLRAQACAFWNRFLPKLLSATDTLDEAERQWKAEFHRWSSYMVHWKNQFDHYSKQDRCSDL

| Structure (SMILES) | CUPRAC, copper reducing antioxidant power [1] | DPPH radical scavenging capacity (SC50) [2] [mg/mL] | IC50 (acetylcholinesterase) [µM] | α-Glucosidase IC50 (α-glucosidase) [µg/mL] | FRAP, the iron reducing antioxidant power [3] [μg/mL trolox/gram DW] | MIC [4] [µg/mL] | MIC [5] [µg/mL] | IC50 (butyrylcholinesterase) [µM] | MIC [6, 16] [µg/mL] | MIC [7] [µg/mL] | MIC [8] [µg/mL] | MIC (Bacillus cereus Roma709; [17]) [µg/mL] | MIC [9] [µg/mL] | MIC [11] [µg/mL] | MIC [12, 18] [µg/mL] | MIC [13] [µg/mL] | other results |
| --- | --- | --- | --- | --- | --- | --- | --- | --- | --- | --- | --- | --- | --- | --- | --- | --- | --- |
| O=C(C(=O)c1cccc(OC2O[C@H](CO)[C@@H](O)[C@H](O)[C@H]2O)c1)c1ccccc1 (stereo partly drawn) [Compound 21, 1-(3-O-β -D-Glucopyranosylphenyl)-2-phenylethane-1,2-dione] | 109.94 ± 19.42 μg/mL trolox/gram DW | 36.94 ± 1.71 | > 2570 | >1000 | 1981.25 ± 28.33 | 12 to 27 (≈ 30.9 to 69.5 µM) | 12 to 27 (≈ 30.9 to 69.5 µM) | > 2570 |  |  |  |  |  |  |  |  |  |
| O=C(C(=O)c1ccc(OC2O[C@H](CO)[C@@H](O)[C@H](O)[C@H]2O)cc1)c1ccccc1 (stereo partly drawn) [Compound 22, 1-(4-O-β -D-Glucopyranosylphenyl)-2-phenylethane-1,2-dione] | 248.97 ± 34.06 μg/mL trolox/gram DW | 47.54 ± 1.05 | 342 | 212.24 | 1845.42 ± 41.36 | 12 to 27 (≈ 30.9 to 69.5 µM) | 12 to 27 (≈ 30.9 to 69.5 µM) | 1360 |  |  |  |  |  |  |  |  |  |
| O=C(c1ccc(O)cc1)C(O)c1cccc(O)c1 (centres unmarked) [Compound 5, 2-Hydroxy-2-(3-hydroxyphenyl)-1-(4-hydroxyphenyl)ethanone] | 1113.33±64 μg/mL trolox/gram DW and 1113.33 ± 64.9 μg/mL trolox/gram DW | 8.12 ± 1.2 | 3230 | >1000 | 2090 ± 101.4 |  |  | > 4090 | 387 (≈ 1580 µM) | 96 (≈ 393 µM) | 48 (≈ 197 µM) | 48 (≈ 197 µM) | 775 (≈ 3170 µM) | 48 (≈ 197 µM) | 96 (≈ 393 µM) |  | MIC [10]: 1550 µg/mL (≈ 6350 µM) |
| O=C(c1ccc(O)cc1)C(O)c1ccccc1 (centres unmarked) [Compound 2, 2-Hydroxy-1-(4-hydroxyphenyl)-2-phenylethanone] | 140.00 ± 11.5 μg/mL trolox/gram DW | 13.78 ± 1.3 | 1070 | 547.97 | 1881 ± 75.5 |  |  | 323 |  | 2060 (≈ 9050 µM) | 129 (≈ 565 µM) |  | 1030 (≈ 4520 µM) | 1030 (≈ 4520 µM) |  | 516 (≈ 2260 µM) | MIC ([6]; ATCC25922, read-out: MIC Ec): 1030 µg/mL (≈ 4520 µM); MIC (Bacillus cereus Roma709; ROMA709, read-out: MIC Bc): 1030 µg/mL (≈ 4520 µM); MIC ([12]; ATCC25923, read-out: MIC Sa): 1030 µg/mL (≈ 4520 µM) |
| N.N.[Cl][Pt][Cl] [Cisplatin, reference compound] |  |  |  |  |  |  |  |  |  |  |  |  |  |  |  |  | GI50 RPE normal cell line ([14]; MTT, 24 h incubation): 1.56 µg/mL; IC50 RPE normal cell line ([14]; MTT, 24 h incubation): 58.77 µg/mL; GI50 HeLa cell line ([15]; MTT, 24 h incubation): 1.13 µg/mL; IC50 HeLa cell line ([15]; MTT, 24 h incubation): 42.76 µg/mL |
| O=C(c1cccc(O)c1)C(O)c1cccc(O)c1 (centres unmarked) [Compound 4, 1,2-Bis(3-hydroxyphenyl)-2-hydroxyethanone] | 398.33 ± 22.1 μg/mL trolox/gram DW | 8.16 ± 0.3 | 454 | >1000 | 1534 ± 75.0 |  |  | 462 | 320 (≈ 1310 µM) | 320 (≈ 1310 µM) | 160 (≈ 655 µM) | 160 (≈ 655 µM) | 640 (≈ 2620 µM) |  | 640 (≈ 2620 µM) | 1280 (≈ 5240 µM) | GI50 ([14]; Homo sapiens, 24 h, read-out: GI50 RPE normal cell line): 1.15 µg/mL (≈ 4.71 µM); IC50 ([14]; Homo sapiens, 24 h, read-out: IC50 RPE normal cell line): 30.3 µg/mL (≈ 124 µM); GI50 ([15]; Homo sapiens, HeLa, 24 h, read-out: GI50 HeLa cell line): 1.12 µg/mL (≈ 4.59 µM); IC50 ([15]; Homo sapiens, HeLa, 24 h, read-out: IC50 HeLa cell line): 42.7 µg/mL (≈ 175 µM) |
